The structures appear in SMILES notation. “Also recorded” adds a separate entry of the source.

Data set [1] relates to AZOOR. The settings on record: reported case, administration for two weeks; cited from earlier work.
Another data set has as its system apoptosis caused by CAR. Description: Therapeutic effect on cancer-associated neuropathy: ERG in rats given anti-recoverin and anti-hsp70 antibodies into the vitreous body. It counts as in vivo, Lewis rats. Conditions: nilvadipine 3.2 mg/kg/day peritoneal for two weeks with antibody infusion into vitreous body; follow-up five weeks; 24 h light; FIG. 1. The method, then:
Example of Experiment (Therapeutic Effect on Cancer-Associated Neuropathy)
Test animal: Lewis rats (8 weeks of age) Treatment group 5 animals (10 eyes) Control group 5 animals (10 eyes)
Photoenvironment: Apoptosis (cell death) was induced under light for 24 hours.
Test drugs: Nilvadipine (3.2 mg/kg/day) by peritoneal administration (dissolving solution) polyethylene glycol 400: ethanol:water=1:1:2 Predonine (0.6 μg/kg/day) by intramuscular injection (dissolving solution) PBS (phosphate buffer solution) Cyclosporine A (10 mg/kg/day) by intramuscular injection (dissolving solution) olive oil
Antibodies: anti-recoverin antibody (5 μl/eye) anti-hsp70 antibody (5 μl/eye)
Test drugs were administered for two weeks along with infusion of antibodies into vitreous body of the eye.
Follow-up observation was performed for five weeks after the start of administration. PBS alone was administered to the control group.
In FIG. 1, the vertical axis represents ERG (electroretinogram) amplitude, and the horizontal axis is the lapse of time in weeks. Δ: nilvadipine group; □: predonine group; ⋄: cyclosporin A group; and ◯: control group.

The subject of data set [2] is AZOOR. Description: Clinical case: therapeutic effect on AZOOR, static visual field examination (Humphrey visual field analyzer). It is filed as in vivo, human patient. The settings on record: person. From the text: Example of Clinical Trial (Therapeutic Effect on AZOOR)
The patient became aware of dark and blurred vision in the center of their visual field on Sep. 1, 1999, and visited Ohyachi Kyoritsu Eye Clinic on September 4 in the same year. […] ERG was subnormal and normal for the right and left eyes, respectively. […] FAG detected mild leakage of fluorescein from the optic disc of the right eye. In view of these observations, optic nerve disorder was suspected and the patient was made to visit a brain surgeon in the neighborhood to receive CT and MRT examinations. However, no abnormality was found. […] To treat the eye symptom, the clinic prescribed oral medications such as drug for ameliorating circulation for a while, but no improvement of visual field was observed. Thus, on Oct. 1, 1999, the patient was referred to the Department of ophthalmology at Sapporo Medical University, School of Medicine for close examination.
Visual acuity was Vd=1.2 and Vs=1.2. Although pupils were round and equal in size, the right eye was RAPD(+) but no oculomotor abnormalities were observed. […] In the static visual field examination, reduction of the sensitivity in the central visual field was observed.
Oral administration of prednisolone (40 mg/day) was started on Oct. 1, 1999. The patient became aware of dark and blurred vision also in the center of the visual field of their left eye on Oct. 20, 1999. […]

The conditions of data set [3]: launched ten years ago; cited from earlier work.

`Nc1nc2c(ncn2COCCO)c(=O)[nH]1` [aciclovir]: the “progress of visual field defect in the other eye” value in the data set with AZOOR [1] is recorded as “stopped”. In the case of `COC(=O)C1=C(C#N)NC(C)=C(C(=O)OC(C)C)C1c1cccc([N+](=O)[O-])c1` (centres unmarked) [nilvadipine, isopropyl 6-cyano-5-methoxycarbonyl-2-methyl-4-(3-nitrophenyl)-1,4-di hydropyridine-3-carboxylate ester], in the data set with apoptosis caused by CAR, the “ERG (electroretinogram) amplitude, effectiveness compared with the other test drugs” value is “more effective than predonine and cyclosporin A”. Further, in the data set with AZOOR [2] (two months after start of oral nilvadipine (Depo-Medrol sub-Tenon's injection three days earlier), FIGS. 4 and 5), the “static visual field / visual sensitivity after nilvadipine” value is recorded as “remarkable improvement of visual sensitivity”. For the same compound, in data set [3], the side effects entry was “no noteworthy serious side effects”. For the compound `C[C@]12C=CC(=O)C=C1CC[C@@H]1[C@@H]2[C@@H](O)C[C@@]2(C)[C@H]1CC[C@]2(O)C(=O)CO` [prednisolone], the “visual field defect under oral prednisolone” value in the data set on AZOOR [2] (oral prednisolone 40 mg/day reduced to 10 mg/day, FIGS. 2 and 3) is “no amelioration of the visual field defect; also recorded: could not improve the visual field”.

(Values after patent US20030114498A1, “Remedies for malignant tumor-concomitant neurosis and azoor or analogous diseases thereof” (priority 2002, published 2003).)
